Source: patent publication US11666071B2, “Compound salt of N,N-dimethylglycine and an organic acid and composition and use thereof” (GUANGZHOU INSIGHTER BIOTECHNOLOGY CO., LTD., priority 2017, dated 2023)
Counter-ions that a name gives are not always drawn. Marks after values point to notes of the source that are not given here.

What was measured:
[1] = High-humidity stability test (hygroscopic weight gain); assay type: physicochemical; conditions: 25° C.; for hygroscopic weight gain, Day 5 (%) / hygroscopic weight gain, Day 10 (%): RH 95%±1%; for hygroscopicity / status of sample: RH 95%; for hygroscopic weight gain, Day 5 (%) / hygroscopicity / status of sample: day 5
[2] = system: Duroc×Landrace×Large White weaned pigs; assay: Zinc salt of N,N-dimethylglycine and fumaric acid in weaned-pig feed; assay type: in vivo; conditions: 15 days
Excerpt: The pigsty and utensils were disinfected before the experiment. The pigs were kept in pens in the same pigsty under the same breeding conditions during the experiment. […] The groups included a control group, a comparative example and experiment groups 1-6. The control group was provided with only the basic diets, the comparative example was provided with 2500 ppm of zinc oxide, and the experiment groups 1-6 were respectively provided with the basic diets together with the hybrid pellet feed additive product 7 provided by the present invention in different concentrations, as shown in Table 9. […] The experiment was carried out for 15 days. […] The experiment data were analyzed with SPSS18 software.

[3] = system: Duroc×Landrace×Large White weaned pigs; assay: Copper salt of N,N-dimethylglycine and fumaric acid on weaned pigs; assay type: in vivo, pig
Procedure: The […] utensils were disinfected before the experiment. The pigs were kept in pens in the same […] under the same breeding conditions during the experiment. […] The test was carried out for 15 days. […] The experiment data were analyzed with SPSS18 software.

Compound | hygroscopic weight gain, Day 5 (%) [1] [%] | hygroscopic weight gain, Day 10 (%) [1] [%] | hygroscopicity / status of sample [1] | other results
Calcium salt of N,N-dimethylglycine and fumaric acid [Sample 8] | 2.95 ± 0.22 | 3.25 ± 0.12 | – | –
CN(C)CC(=O)O.Cl [Sample 1, N,N-dimethylglycine hydrochloride, reference compound] | 79.86 ± 0.94 | 80.69 ± 0.59 | very high hygroscopicity | –
Zinc salt of N,N-dimethylglycine and fumaric acid [Sample 13] | 2.26 ± 0.09 | 2.76 ± 0.23 | – | effect on the feed intake of weaned pigs ([2]; 55-520 ppm): no significant effect; dose at which reduction of feed conversion ratio is significant and equivalent to high-dose zinc oxide ([2]; weaned pigs): higher than 390 ppm; dose that significantly increases average daily weight gain to the level of 2500 ppm zinc oxide ([2]; weaned pigs): about 260 ppm
Calcium salt of N,N-dimethylglycine and p-methylbenzenesulfonic acid [Sample 10] | 2.84 ± 0.23 | 3.01 ± 0.11 | – | –
CN(C)CC(=O)O [Sample 6, Calcium salt of N,N-dimethylglycine and sulfuric acid] | 61.72 ± 0.41 | 60.58 ± 0.21 | water-like status | –
CN(C)CC(=O)[O-].O=C([O-])c1ccccc1.[Cu+2] [Sample 11] | 2.41 ± 0.07 | 2.81 ± 0.10 | – | –
[O]=[Zn] [Zinc oxide, reference compound] | – | – | – | FCR ([2]; dose 2500 ppm): 1.808 ± 0.018
Copper salt of N,N-dimethylglycine and fumaric acid [Sample 14] | 2.56 ± 0.11 | 2.81 ± 0.06 | – | effect on the average daily weight gain of weaned pigs ([3]; 30-100 ppm, 15 days): no significant effect; effect on the feed intake of weaned pigs ([3]; 30-100 ppm, 15 days): no significant effect; reduction of feed conversion ratio compared with the control group ([3]; dose 100 ppm): 8.61%; dose at which feed conversion ratio is significantly reduced ([3]; weaned pigs, 15 days): 30-100 ppm
O.O.O.O.O.O=S(=O)([O-])[O-].[Cu+2] [Copper sulfate pentahydrate, reference compound] | – | – | – | ADFI ([3]; dose 250 ppm, 15 days): 94.67 ± 1.33 kg; ADG ([3]; dose 250 ppm, 15 days): 46.38 ± 1.01 kg; FCR ([3]; dose 250 ppm, 15 days): 2.042 ± 0.021^b
Calcium salt of N,N-dimethylglycine and tetradecanoic acid [Sample 9] | 2.11 ± 0.04 | 2.75 ± 0.32 | – | –
CN(C)CC(=O)[O-].[Na+] [Sample 2, Sodium N,N-dimethylglycinate, reference compound] | 49.09 ± 1.14 | 52.44 ± 0.48 | very high hygroscopicity | –
Calcium N,N-dimethylglycinate [Sample 3, reference compound] | 38.40 ± 0.22 | 41.83 ± 0.35 | very high hygroscopicity | –
